{
  "source": "patent US20040186179A1",
  "about": "“Pharmaceutical composition” (priority 2000, published 2004)",
  "key": {"[1]": {"tested_on": "patients with knee or hip primary osteoarthritis", "assay": "Four week placebo-controlled trial, most pain over the previous 24 hours on a 100 mm VAS", "type": "in vivo, human", "protocol": "(§1) A four week multicenter randomized double-blind double-dummy placebo-controlled parallel group trial (the study) of four dosing regimens of 5-methyl-2-(2′-chloro-6′-fluoroanilino)phenylacetic acid in patients with knee or hip primary osteoarthritis is performed, using diclofenac as a comparator. Patients are male and female, from 18 to 75 years of age, have a clinical and radiological diagnosis of knee or hip osteoarthritis as defined by the American College of Rheumatology criteria, and have a pain intensity of at least 40 mm (Visual Analog Scale) in the affected joint prior to screening for inclusion in the study. 584 patients are randomized to receive either 50, 100, or 200 mg 5-methyl-2-(2′-chloro-6′-fluoroanilino)phenylacetic acid or 75 mg diclofenac administered orally twice a day, or 400 mg 5-methyl-2-(2′-chloro-6′-fluoroanilino)phenylacetic acid administered orally once a day, or placebo. Drug and placebo are administered in capsules. The comparator, diclofenac, is an extended release tablet that is over-encapsulated to match the placebo. The treatment duration is for 28 days.\n(§2) Pharmacokinetics are performed on 52 of the patients who receive 5-methyl-2-(2′-chloro-6′-fluoroanilino)phenylacetic acid. Blood samples are taken at 0, 0.5, 1, 2, 3, 4 and 6 hours following administration of 5-methyl-2-(2′-chloro-6′-fluoroanilino)phenylacetic acid. Plasma concentrations of 5-methyl-2-(2′-chloro-6′-fluoroanilino)phenylacetic acid are measured by an LC/MS assay with a limit of quantitation of 10 ng/ml. Cmax and tmax AUC (0-6) are determined for day 1 and Cmax^ss and tmax^ss AUCτ^ss, Cmin^ss, Cav^ss, peak-trough fluctuation (PTF) and Cl/F at steady state are determined on day 28. The primary efficacy parameter is the most pain experienced over the previous 24 hours on a 100 mm VAS."}, "[2]": {"assay": "Pharmacokinetics in osteoarthritis patients, plasma concentrations by LC/MS", "type": "in vivo, human", "settings": "for Tmax / Cmax / AUC(0-t) / AUC: plasma; for AUC(0-t): read-out: AUC0-6", "protocol": "as §1, §2"}, "[3]": {"settings": "both sexes, human, po, 50 mg, 50 mg bid oral, day 0"}, "[4]": {"settings": "both sexes, human, po, 50 mg, 50 mg bid oral, day 28"}, "[5]": {"settings": "both sexes, human, po, 100 mg, 100 mg bid oral, day 0"}, "[6]": {"settings": "both sexes, human, po, 100 mg, 100 mg bid oral, day 28"}, "[7]": {"settings": "both sexes, human, po, 200 mg, 200 mg bid oral, day 0"}, "[8]": {"settings": "both sexes, human, po, 200 mg, 200 mg bid oral, day 28"}, "[9]": {"settings": "both sexes, human, po, 400 mg, 400 mg qd oral, day 0"}, "[10]": {"settings": "both sexes, human, po, 400 mg, 400 mg qd oral, day 28"}},
  "note": "Where two headings read alike, the source gives them in different places. Marks after values point to notes of the source that are not given here.",
  "data": [
    {"smiles": "O=C(O)Cc1ccccc1Nc1c(Cl)cccc1Cl", "note": "[diclofenac, reference compound]", "values": [
      {"measurement": "VAS pain, change from baseline", "setting": "[1]; 75 mg twice a day, extended release tablet, day 7, 100 mm VAS", "result": "−27.9", "unit": "mm"},
      {"measurement": "VAS pain, change from baseline", "setting": "[1]; 75 mg twice a day, extended release tablet, day 14, 100 mm VAS", "result": "−30.4 (23.0)* mm"},
      {"measurement": "VAS pain, change from baseline", "setting": "[1]; 75 mg twice a day, extended release tablet, day 28, 100 mm VAS", "result": "−31.8", "unit": "mm"}
    ]},
    {"smiles": "Cc1ccc(Nc2c(F)cccc2Cl)c(CC(=O)O)c1", "note": "[5-methyl-2-(2′-chloro-6′-fluoroanilino)phenylacetic acid]", "values": [
      {"measurement": "VAS pain, change from baseline", "setting": "[1]; 50 mg bid, day 7, 100 mm VAS", "result": "−19.5 (19.1)* mm"},
      {"measurement": "VAS pain, change from baseline", "setting": "[1]; 50 mg bid, day 14, 100 mm VAS", "result": "−22.6 (20.9)* mm"},
      {"measurement": "VAS pain, change from baseline", "setting": "[1]; 50 mg bid, day 28, 100 mm VAS", "result": "−28.6", "unit": "mm"},
      {"measurement": "VAS pain, change from baseline", "setting": "[1]; 100 mg bid, day 7, 100 mm VAS", "result": "−19.2 (21.6)* mm"},
      {"measurement": "VAS pain, change from baseline", "setting": "[1]; 100 mg bid, day 14, 100 mm VAS", "result": "−21.2 (22.6)* mm"},
      {"measurement": "VAS pain, change from baseline", "setting": "[1]; 100 mg bid, day 28, 100 mm VAS", "result": "−26.3", "unit": "mm"},
      {"measurement": "VAS pain, change from baseline", "setting": "[1]; 200 mg bid, day 7, 100 mm VAS", "result": "−22.0 (20.8)* mm"},
      {"measurement": "VAS pain, change from baseline", "setting": "[1]; 200 mg bid, day 14, 100 mm VAS", "result": "−24.1 (22.8)* mm"},
      {"measurement": "VAS pain, change from baseline", "setting": "[1]; 200 mg bid, day 28, 100 mm VAS", "result": "−29.6", "unit": "mm"},
      {"measurement": "Pain relief of 400 mg once daily compared with 200 mg twice daily", "setting": "[1]; 400 mg once daily", "result": "the same or better pain relief as 200 mg twice daily"},
      {"measurement": "Mean VAS scores compared with the other dose groups", "setting": "[1]; 400 mg once daily, day 28, throughout the measurement period", "result": "best mean scores"},
      {"measurement": "VAS pain, change from baseline", "setting": "[1]; 400 mg qd, day 7, 100 mm VAS", "result": "−26.0 (22.4)*a, b mm"},
      {"measurement": "VAS pain, change from baseline", "setting": "[1]; 400 mg qd, day 14, 100 mm VAS", "result": "−27.5 (23.8)* mm"},
      {"measurement": "VAS pain, change from baseline", "setting": "[1]; 400 mg qd, day 28, 100 mm VAS", "result": "−33.2", "unit": "mm"},
      {"measurement": "Duration of effective anti-inflammatory treatment after a single oral dose", "setting": "[1]; about 200 to about 1200 mg per day, immediate-release formulation, humans", "result": 24, "unit": "h"},
      {"measurement": "CLss/F", "setting": "[2]; 50 mg bid oral, day 28", "result": "15.0 ± 4.7", "unit": "L/h"},
      {"measurement": "CLss/F", "setting": "[2]; 100 mg bid oral, day 28", "result": "13.3 ± 3.3", "unit": "L/h"},
      {"measurement": "CLss/F", "setting": "[2]; 200 mg bid oral, day 28", "result": "15.0 ± 3.5", "unit": "L/h"},
      {"measurement": "CLss/F", "setting": "[2]; 400 mg qd oral, day 28", "result": "17.4 ± 6.1", "unit": "L/h"},
      {"measurement": "Dose dependence of AUC and Cmax", "setting": "[2]; 50, 100, 200 mg twice daily and 400 mg once daily, day 28", "result": "dose proportional increase"},
      {"measurement": "Tmax", "setting": "[2]; both sexes, human, oral, all dose groups, read-out: tmax, typical", "result": "2 to 3", "unit": "h"},
      {"measurement": "Cmax", "setting": "[2]; [3]", "result": "914 ± 340", "unit": "ng/mL"},
      {"measurement": "AUC(0-t)", "setting": "[2]; [3]", "result": "2680 ± 960", "unit": "ng·h/mL"},
      {"measurement": "Tmax", "setting": "[2]; both sexes, human, po, 50 mg, 50 mg bid oral, day 0, read-out: tmax", "result": 2, "unit": "h"},
      {"measurement": "Cmax", "setting": "[2]; [4]", "result": "1010 ± 590", "unit": "ng/mL"},
      {"measurement": "AUC(0-t)", "setting": "[2]; [4]", "result": "2810 ± 1210", "unit": "ng·h/mL"},
      {"measurement": "Tmax", "setting": "[2]; both sexes, human, po, 50 mg, 50 mg bid oral, day 28, read-out: tmax", "result": 2, "unit": "h"},
      {"measurement": "Cmax", "setting": "[2]; [5]", "result": "1790 ± 600", "unit": "ng/mL"},
      {"measurement": "AUC(0-t)", "setting": "[2]; [5]", "result": "5220 ± 1810", "unit": "ng·h/mL"},
      {"measurement": "Tmax", "setting": "[2]; both sexes, human, po, 100 mg, 100 mg bid oral, day 0, read-out: tmax", "result": 2.5, "unit": "h"},
      {"measurement": "Cmax", "setting": "[2]; [6]", "result": "1860 ± 630", "unit": "ng/mL"},
      {"measurement": "AUC(0-t)", "setting": "[2]; [6]", "result": "6010 ± 1890", "unit": "ng·h/mL"},
      {"measurement": "Tmax", "setting": "[2]; both sexes, human, po, 100 mg, 100 mg bid oral, day 28, read-out: tmax", "result": 2, "unit": "h"},
      {"measurement": "Cmax", "setting": "[2]; [7]", "result": "4210 ± 2160", "unit": "ng/mL"},
      {"measurement": "AUC(0-t)", "setting": "[2]; [7]", "result": "11700 ± 3570", "unit": "ng·h/mL"},
      {"measurement": "Tmax", "setting": "[2]; both sexes, human, po, 200 mg, 200 mg bid oral, day 0, read-out: tmax", "result": 3, "unit": "h"},
      {"measurement": "Cmax", "setting": "[2]; [8]", "result": "4380 ± 3100", "unit": "ng/mL"},
      {"measurement": "AUC(0-t)", "setting": "[2]; [8]", "result": "11100 ± 3020", "unit": "ng·h/mL"},
      {"measurement": "Tmax", "setting": "[2]; both sexes, human, po, 200 mg, 200 mg bid oral, day 28, read-out: tmax", "result": 2, "unit": "h"},
      {"measurement": "Cmax", "setting": "[2]; [9]", "result": "5540 ± 1800", "unit": "ng/mL"},
      {"measurement": "AUC(0-t)", "setting": "[2]; [9]", "result": "17200 ± 5280", "unit": "ng·h/mL"},
      {"measurement": "Tmax", "setting": "[2]; both sexes, human, po, 400 mg, 400 mg qd oral, day 0, read-out: tmax", "result": 3, "unit": "h"},
      {"measurement": "Cmax", "setting": "[2]; [10]", "result": "4790 ± 2640", "unit": "ng/mL"},
      {"measurement": "AUC(0-t)", "setting": "[2]; [10]", "result": "15300 ± 5590", "unit": "ng·h/mL"},
      {"measurement": "Tmax", "setting": "[2]; both sexes, human, po, 400 mg, 400 mg qd oral, day 28, read-out: tmax", "result": 2, "unit": "h"},
      {"measurement": "AUC", "setting": "[2]; both sexes, human, 50 mg bid oral, day 28", "result": "3660 ± 1290", "unit": "ng·h/mL"},
      {"measurement": "AUC", "setting": "[2]; both sexes, human, 100 mg bid oral, day 28", "result": "8100 ± 2730", "unit": "ng·h/mL"},
      {"measurement": "AUC", "setting": "[2]; both sexes, human, 200 mg bid oral, day 28", "result": "14000 ± 3220", "unit": "ng·h/mL"},
      {"measurement": "AUC", "setting": "[2]; both sexes, human, 400 mg qd oral, day 28", "result": "25800 ± 9200", "unit": "ng·h/mL"},
      {"measurement": "half-life", "setting": "[2]; both sexes, human, blood plasma, oral administration", "result": "3 to 6", "unit": "h"}
    ]}
  ]
}
